Experimental data reported in patent publication US20070037835A1, “Pharmaceutical composition comprising a cathepsin s inhibitor and an opioid” (priority 2003, published 2007).
Where a name gives a salt, the structure may show the parent alone.

Columns and labels:
[1] = test system: established mechanical hyperalgesia; assay: Chronic neuropathic pain model (Seltzer, partial ligation of the sciatic nerve), paw withdrawal threshold; assay type: in vivo, Wistar rats; conditions: mean ± s.e.m.
Excerpt: Hyperalgesia is examined in the model of neuropathic pain induced by partial ligation of the sciatic nerve as described by Seltzer et al. (1990). Briefly, Wistar rats (120-140 g) are anaesthetised, the left sciatic nerve exposed at mid-thigh level through a small incision and ⅓ to ½ of the nerve thickness tightly ligated within a 7.0 silk suture. The wound is closed with a single muscle suture and skin clips and dusted with Aureomycin antibiotic powder. The animals are allowed to recover and used 12-15 days following surgery. Mechanical hyperalgesia is assessed by measuring paw withdrawal thresholds to an increasing pressure stimulus placed onto the dorsal surface of the paw using an analgesy-meter (Ugo-Basile, Milan) with a cut-off of 250 g. Withdrawal thresholds are measured on both the ipsilateral (ligated) and contralateral (unligated) paw prior to (predose) and then up to 6 h following drug or vehicle administration. Data are expressed as withdrawal threshold (g) and percentage reversal of hyperalgesia calculated according to the following formula: [formula]
Potency is expressed as D50 value, i.e. the dose of the single compound or a COMBINATION OF THE INVENTION necessary to produce 50% reversal of hyperalgesia.
Paw withdrawal thresholds are measured prior to drug treatment (predose) and then at 0.5, 1, 3 and 6 hours following concomitant administration of morphine subcutaneously and the cathepsin inhibitor of formula II orally. Each time point represents data from 6 animals per group. Vehicle is 0.5% methylcellulose, 1 ml p.o./0.9% saline s.c. Statistical analysis is performed on raw data (paw withdrawal thresholds).
Statistical significance, *† P<0.05 by Analysis of variance followed by Dunnett's test.

[2] = test system: neuropathic rat nociceptive threshold; assay: Naloxone blockade of anti-hyperalgesic effect in neuropathic rats; assay type: in vivo

SMILES: CC(C)(C)CCn1c(Cc2ccc(Cl)cc2)cc2cnc(C#N)nc21 [Inhibitor]
- % Reversal of Predose Hyperalgesia ([1]; Inhibitor 10 mg/kg p.o., 0.5 h post-dose): 30.3 ± 5.8%
- % Reversal of Predose Hyperalgesia ([1]; Inhibitor 10 mg/kg p.o., 1 h post-dose): 22.8 ± 4.6%
- % Reversal of Predose Hyperalgesia ([1]; Inhibitor 30 mg/kg, 0.5 h post-dose): 46.7 ± 11.4%
- % Reversal of Predose Hyperalgesia ([1]; Inhibitor 30 mg/kg, 1 h post-dose): 54.7 ± 7.1%

SMILES: CN1CC[C@]23c4c5ccc(O)c4O[C@H]2[C@@H](O)C=C[C@H]3[C@H]1C5 [Morphine, morphine]
- % Reversal of Predose Hyperalgesia ([1]; Morphine 1 mg/kg s.c., 0.5 h post-dose): 4.4 ± 2.8%
- % Reversal of Predose Hyperalgesia ([1]; Morphine 1 mg/kg s.c., 1 h post-dose): 6.5 ± 2.9%

SMILES: C=CCN1CC[C@]23c4c5ccc(O)c4O[C@H]2C(=O)CC[C@@]3(O)[C@H]1C5 [Naloxone hydrochloride]
- effect on neuropathic rat nociceptive threshold ([2]; naloxone alone, 0.1 mg/kg): devoid of any effect
- effect on the anti-hyperalgesic effect induced by the compound of formula II ([2]; neuropathic rats, naloxone 0.1 mg/kg): blocks the anti-hyperalgesic effect
